The record followed here is patent US8334315B2, “Substituted aromatic carboxamide and urea derivatives as vanilloid receptor ligands” (Gruenenthal GmbH, priority 2009, dated 2012).

In the first experiment the target is T1, hVR1 (Homo sapiens, UniProt Q8NER1).
T1 construct: expressed in transfected cells; host or cells: CHO K1 cells (ECACC), stably transfected
T1 sequence (Q8NER1 whole entry): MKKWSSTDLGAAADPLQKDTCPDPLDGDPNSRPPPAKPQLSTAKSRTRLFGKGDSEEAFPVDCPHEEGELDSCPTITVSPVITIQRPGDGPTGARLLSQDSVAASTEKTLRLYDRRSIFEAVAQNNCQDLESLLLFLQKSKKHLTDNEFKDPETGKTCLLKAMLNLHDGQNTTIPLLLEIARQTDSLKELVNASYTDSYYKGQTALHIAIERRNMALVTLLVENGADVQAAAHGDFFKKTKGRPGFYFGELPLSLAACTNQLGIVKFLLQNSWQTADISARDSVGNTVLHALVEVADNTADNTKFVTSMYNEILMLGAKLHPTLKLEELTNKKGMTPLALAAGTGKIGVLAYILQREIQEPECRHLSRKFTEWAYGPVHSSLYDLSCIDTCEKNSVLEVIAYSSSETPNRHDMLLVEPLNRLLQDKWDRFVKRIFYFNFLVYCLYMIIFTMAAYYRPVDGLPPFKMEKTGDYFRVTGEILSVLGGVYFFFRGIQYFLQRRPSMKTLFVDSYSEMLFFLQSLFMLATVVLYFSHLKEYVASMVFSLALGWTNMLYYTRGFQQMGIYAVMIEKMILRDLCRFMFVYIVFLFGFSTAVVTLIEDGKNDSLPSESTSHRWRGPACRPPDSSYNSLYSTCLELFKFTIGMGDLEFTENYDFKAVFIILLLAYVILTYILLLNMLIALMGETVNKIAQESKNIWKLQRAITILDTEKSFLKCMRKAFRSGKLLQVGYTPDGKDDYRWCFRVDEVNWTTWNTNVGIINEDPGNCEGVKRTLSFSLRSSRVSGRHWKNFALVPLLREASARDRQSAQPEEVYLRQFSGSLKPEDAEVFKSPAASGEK
Kind of experiment: Functional test on VR1, FLIPR Ca2+ influx in transfected CHO K1 cells, capsaicin. The arrangement: key to Ki (human being) [nM] Cap: agonist / partial agonist / no effect: AG=agonist; pAG=partial agonist; NE=no effect.
Conditions: not given
In kind it is cell-based, human being. From the text: In the process, the Ca^2+ influx is quantified in the FLIPR assay with the aid of a Ca^2+-sensitive dye (type Fluo-4, Molecular Probes Europe BV, Leiden, the Netherlands) in a fluorescent imaging plate reader (FLIPR, Molecular Devices, Sunnyvale, USA), as described hereinafter.
II. Functional Tests Carried Out on the Vanilloid Receptor (VR1)
The agonistic or antagonistic effect of the substances to be tested on the vanilloid receptor 1 (VR1) can also be determined using the following assay. In this assay, the influx of Ca^2+ through the channel is quantified with the aid of a Ca^2+-sensitive dye (type Fluo-4, Molecular Probes Europe BV, Leiden, the Netherlands) in a fluorescent imaging plate reader (FLIPR, Molecular Devices, Sunnyvale, USA).
Chinese hamster ovary cells (CHO K1 cells, European Collection of Cell Cultures (ECACC) United Kingdom) are stably transfected with the VR1 gene. For functional testing, these cells are plated out on poly-D-lysine-coated black 96-well plates having a clear base (BD Biosciences, Heidelberg, Germany) at a density of 25,000 cells/well. The cells are incubated overnight at 37° C. and 5% CO2 in a culture medium (Ham's F12 nutrient mixture, 10% by volume of FCS (foetal calf serum), 18 μg/ml of L-proline). The next day the cells are incubated with Fluo-4 (Fluo-4 2 μM, 0.01% by volume of Pluronic F127, Molecular Probes in HBSS (Hank's buffered saline solution), Gibco Invitrogen GmbH, Karlsruhe, Germany) for 30 minutes at 37° C. Subsequently, the plates are washed three times with HBSS buffer and after further incubation for 15 minutes at RT used for Ca^2+ measurement in a FLIPR assay. The Ca^2+-dependent fluorescence is measured before and after the addition of the substances to be tested (λex wavelength=488 nm, λem=540 nm). Quantification is carried out by measuring the highest fluorescence intensity (FC, fluorescence counts) over time.
The FLIPR protocol consists of 2 substance additions. First the compounds to be tested (10 μM) are pipetted onto the cells and the Ca^2+ influx is compared with the control (capsaicin 10 μM) (% activation based on the Ca^2+ signal after the addition of 10 μM of capsaicin). After 5 minutes' incubation, 100 nM of capsaicin are applied and the Ca^2+ influx is also determined.
Desensitising agonists and antagonists led to suppression of the Ca^2+ influx. The % inhibition is calculated compared to the maximum achievable inhibition with 10 μM of capsaicin.
Starting from the percentage displacement caused by different concentrations of the compounds to be tested of general formula I, IC50 inhibitory concentrations which cause a 50-per cent displacement of capsaicin were calculated. Ki values for the test substances were obtained by conversion by means of the Cheng-Prusoff equation (Cheng, Prusoff; Biochem. Pharmacol. 22, 3099-3108, 1973).
The affinity of the compounds according to the invention for the vanilloid receptor 1 (VR1/TRPV1 receptor) was determined as described hereinbefore (pharmacological methods I and II respectively).
As to `CC(C(=O)NCc1cc(C(F)(F)F)nn1-c1cccc(Cl)c1)c1ccc2nc(N)sc2c1` (centres unmarked) [Example 43, 2-(2-aminobenzo[d]thiazol-6-yl)-N-((1-(3-chlorophenyl)-3-(trifluoromethyl)-1H-pyrazol-5-yl)methyl)propanamide], the “Ki (human being) [nM] Cap: agonist / partial agonist / no effect” value is on record as “pAG”.
On to `CC(C)(C)c1cc(CNC(=O)Nc2cccc3c2CCC3)n(-c2cccc(Cl)c2)n1` [Example 78, 1-((3-tert-butyl-1-(3-chlorophenyl)-1H-pyrazol-5-yl)methyl)-3-(2,3-dihydro-1H-inden-4-yl)urea], for which the “Ki (human being) [nM] Cap: agonist / partial agonist / no effect” value is “pAG”.
The same measure, in the same setting: the same measure for `CC(C)(C)c1cc(CNC(=O)Nc2cccc3c2OCC3)n(-c2cccc(Cl)c2)n1` [Example 185, 1-((3-tert-butyl-1-(3-chlorophenyl)-1H-pyrazol-5-yl)methyl)-3-(2,3-dihydrobenzofuran-7-yl)urea]: “pAG”; for `CC(C)(C)c1cc(CNC(=O)Nc2ccc3c(c2)OC(F)(F)O3)n(-c2cccc(Cl)c2)n1` [Example 187, 1-((3-tert-butyl-1-(3-chlorophenyl)-1H-pyrazol-5-yl)methyl)-3-(2,2-difluorobenzo[d][1,3]dioxol-5-yl)urea]: “AG”.

Staying with this experiment, now noted: capsaicin (Cap); includes values given in brackets after pAG; read-out: Ki (human being) [nM] Cap.
With `CC(C(=O)NCc1cc(C(F)(F)F)nn1-c1cccc(Cl)c1)c1cccc2c1CCCC2` (centres unmarked) [Example 2, N-((1-(3-chlorophenyl)-3-(trifluoromethyl)-1H-pyrazol-5-yl)methyl)-2-(5,6,7,8-tetrahydronaphthalen-1-yl)propanamide], the Ki is 6.6 nM.
Take `CC(C(=O)NCc1cc(C(F)(F)F)nn1-c1cccc(Cl)c1)c1ccc2c(c1)C(=O)CC2` (centres unmarked) [Example 6, N-((1-(3-chlorophenyl)-3-(trifluoromethyl)-1H-pyrazol-5-yl)methyl)-2-(3-oxo-2,3-dihydro-1H-inden-5-yl)propanamide]: the Ki is 12.8 nM.
Same read-out and setting: the same measure for `CC(C(=O)NCc1cc(C(C)(C)C)nn1-c1cccc(Cl)c1)c1cccc2[nH]ccc12` (centres unmarked) [Example 25, N-((3-tert-butyl-1-(3-chlorophenyl)-1H-pyrazol-5-yl)methyl)-2-(1H-indol-4-yl)propanamide]: 5.5 nM; for `CC(C(=O)NCc1cc(C(F)(F)F)nn1-c1cccc(Cl)c1)c1cccc2c1ccn2C` (centres unmarked) [Example 26, N-((1-(3-chlorophenyl)-3-(trifluoromethyl)-1H-pyrazol-5-yl)methyl)-2-(1-methyl-1H-indol-4-yl)propanamide]: 21.5 nM; for `CC(C(=O)NCc1cc(C(F)(F)F)nn1-c1cccc(Cl)c1)c1ccc2ncsc2c1` (centres unmarked) [Example 42, 2-(benzo[d]thiazol-6-yl)-N-((1-(3-chlorophenyl)-3-(trifluoromethyl)-1H-pyrazol-5-yl)methyl)propanamide]: 4 nM.
Same read-out and setting: the same measure for `CC(C(=O)NCc1cc(C(F)(F)F)nn1-c1cccc(Cl)c1)c1ccc2nc(N)sc2c1` (centres unmarked) [Example 43, 2-(2-aminobenzo[d]thiazol-6-yl)-N-((1-(3-chlorophenyl)-3-(trifluoromethyl)-1H-pyrazol-5-yl)methyl)propanamide]: 22.9 nM; for `Cc1cc2c(C(C)C(=O)NCc3cc(C(F)(F)F)nn3-c3cccc(Cl)c3)cccc2c(C)n1` (centres unmarked) [Example 67, N-((1-(3-chlorophenyl)-3-(trifluoromethyl)-1H-pyrazol-5-yl)methyl)-2-(1,3-dimethylisoquinolin-5-yl)propanamide]: 5.2 nM; for `CC(C(=O)NCc1cc(C(F)(F)F)nn1-c1cccc(Cl)c1)c1ccc2cccnc2c1` (centres unmarked) [Example 72, N-((1-(3-chlorophenyl)-3-(trifluoromethyl)-1H-pyrazol-5-yl)methyl)-2-(quinolin-7-yl)propanamide]: 0.5 nM.
Same read-out and setting: the figure for `CC(C)(C)c1cc(CNC(=O)Nc2cccc3c2CCC3)n(-c2cccc(Cl)c2)n1` [Example 78, 1-((3-tert-butyl-1-(3-chlorophenyl)-1H-pyrazol-5-yl)methyl)-3-(2,3-dihydro-1H-inden-4-yl)urea] is 2.4 nM; for `CC(C)(C)c1cc(CNC(=O)Nc2cccc3ccncc23)n(-c2cccc(Cl)c2)n1` [Example 108, 1-((3-tert-butyl-1-(3-chlorophenyl)-1H-pyrazol-5-yl)methyl)-3-(isoquinolin-8-yl)urea] it is 0.5 nM; for `O=C(NCc1cc(C(F)(F)F)nn1-c1ccc(Cl)cc1)Nc1ccc2c(c1)CCC2` [Example 174, 1-((1-(4-chlorophenyl)-3-(trifluoromethyl)-1H-pyrazol-5-yl)methyl)-3-(2,3-dihydro-1H-inden-5-yl)urea] it is 75.8 nM.
Regarding `O=C(NCc1cc(C(F)(F)F)nn1-c1ccc(F)cc1)Nc1ccc2c(c1)CCC2` [Example 175, 1-(2,3-dihydro-1H-inden-5-yl)-3-((1-(4-fluorophenyl)-3-(trifluoromethyl)-1H-pyrazol-5-yl)methyl)urea], the Ki was 70.2 nM.
On to `CC(C)(C)c1cc(CNC(=O)Nc2ccc3c(c2)CCC3)n(-c2cccc(F)c2)n1` [Example 176, 1-((3-tert-butyl-1-(3-fluorophenyl)-1H-pyrazol-5-yl)methyl)-3-(2,3-dihydro-1H-inden-5-yl)urea], for which the Ki was 34 nM.
For the compound `CC(C)(C)c1cc(CNC(=O)Nc2ccc3c(c2)CCC3)n(-c2ccc(F)c(Cl)c2)n1` [Example 177, 1-((3-tert-butyl-1-(3-chloro-4-fluorophenyl)-1H-pyrazol-5-yl)methyl)-3-(2,3-dihydro-1H-inden-5-yl)urea], the Ki was 10.3 nM.
Still for that read-out and setting: the same measure for `COc1ccc(-n2nc(C(F)(F)F)cc2CNC(=O)Nc2ccc3c(c2)CCC3)cc1` [Example 178, 1-(2,3-dihydro-1H-inden-5-yl)-3-((1-(4-methoxyphenyl)-3-(trifluoromethyl)-1H-pyrazol-5-yl)methyl)urea]: 38.4 nM; for `O=C(NCc1cc(C(F)(F)F)nn1-c1ccc(C(F)(F)F)cc1)Nc1ccc2c(c1)CCC2` [Example 179, 1-(2,3-dihydro-1H-inden-5-yl)-3-((3-(trifluoromethyl)-1-(4-(trifluoromethyl)phenyl)-1H-pyrazol-5-yl)methyl)urea]: 36.3 nM; for `O=C(NCc1cc(C(F)(F)F)nn1-c1ccc(OC(F)(F)F)cc1)Nc1ccc2c(c1)CCC2` [Example 180, 1-(2,3-dihydro-1H-inden-5-yl)-3-((1-(4-(trifluoromethoxy)phenyl)-3-(trifluoromethyl)-1H-pyrazol-5-yl)methyl)urea]: 41 nM.
Same read-out and setting: the figure for `Cc1ccc(-n2nc(C(F)(F)F)cc2CNC(=O)Nc2ccc3c(c2)CCC3)cc1C` [Example 181, 1-(2,3-dihydro-1H-inden-5-yl)-3-((1-(3,4-dimethylphenyl)-3-(trifluoromethyl)-1H-pyrazol-5-yl)methyl)urea] is 35.9 nM; for `CC(C)(C)c1cc(CNC(=O)Nc2ccc3c(c2)CCC3)n(-c2cc(Cl)cc(Cl)c2)n1` [Example 182, 1-((3-tert-butyl-1-(3,5-dichlorophenyl)-1H-pyrazol-5-yl)methyl)-3-(2,3-dihydro-1H-inden-5-yl)urea] it is 32.8 nM.
Regarding `CC(C(=O)NCc1cc(C2CC2)nn1-c1cccc(Cl)c1)c1ccc2c(c1)OCO2` (centres unmarked) [Example 183, 2-(benzo[d][1,3]dioxol-5-yl)-N-((1-(3-chlorophenyl)-3-cyclopropyl-1H-pyrazol-5-yl)methyl)propanamide], the Ki came to 28.4 nM.
Same read-out and setting: the figure for `CC(C(=O)NCc1cc(C(F)(F)F)nn1C1CCCCC1)c1ccc2c(c1)OCCO2` (centres unmarked) [Example 184, N-((1-cyclohexyl-3-(trifluoromethyl)-1H-pyrazol-5-yl)methyl)-2-(2,3-dihydrobenzo[b][1,4]dioxin-6-yl)propanamide] is 66.2 nM; for `CC(C)(C)c1cc(CNC(=O)Nc2cccc3c2OCC3)n(-c2cccc(Cl)c2)n1` [Example 185, 1-((3-tert-butyl-1-(3-chlorophenyl)-1H-pyrazol-5-yl)methyl)-3-(2,3-dihydrobenzofuran-7-yl)urea] it is 39.7 nM.
In the case of `CC(C)(C)c1cc(CNC(=O)Cc2ccc3c(c2)OCCO3)n(-c2cccc(Cl)c2)n1` [Example 188, N-((3-tert-butyl-1-(3-chlorophenyl)-1H-pyrazol-5-yl)methyl)-2-(2,3-dihydrobenzo[b][1,4]dioxin-6-yl)acetamide], the Ki turned out to be 5.9 nM.
The same measure, in the same setting: the same measure for `CC(C(=O)NCc1cc(C(F)(F)F)nn1-c1cccc(Cl)c1)c1ccc2c(c1)CCC(C)(C)O2` (centres unmarked) [Example 189, N-((1-(3-chlorophenyl)-3-(trifluoromethyl)-1H-pyrazol-5-yl)methyl)-2-(2,2-dimethylchroman-6-yl)propanamide]: 41.2 nM; for `CC(C(=O)NCc1cc(C(F)(F)F)nn1-c1cccc(Cl)c1)c1ccc2c(c1)C=CC(C)(C)O2` (centres unmarked) [Example 190, N-((1-(3-chlorophenyl)-3-(trifluoromethyl)-1H-pyrazol-5-yl)methyl)-2-(2,2-dimethyl-2H-chromen-6-yl)propanamide]: 30.4 nM.
